For the data set, the system named is P-gp. The data set is described as follows: Bidirectional transport in MDCKⅡ-MDR1 cell monolayers. The format is in vitro ADME. The following applies: dog. As for the experimental part: To further validate the effect of P-gp on the transport of IMM-H004G or IMM-H004, MDCKⅡ-MDR1 cells were seeded onto polycarbonate membrane transwell inserts in 24-well plates and used for transport studies after 5 days or when the effective transepithelial electric resistance (TEER) values exceeded 300 Ω·cm^2. The monolayers were initially rinsed twice with HBSS. Subsequently, IMM-H004G or IMM-H004 (10 µmol/L) was added to either the apical or basolateral side of the monolayer. Aliquots of 50 µL were collected from the opposite compartment at various time points, covering a maximum duration of 120 min. Digoxin (5 μmol/L) was used as a positive substrate, while PSC833 (5 µmol/L) was used as an inhibitor in MDCKⅡ-MDR1 cells. The apparent permeability value (Papp) was calculated using the following equation:(2) Papp=dQ/dt/AC0 where dQ/dt is the slope of the cumulative transport amount over time during the study period. A is the base area of the insert, and C0 is the initial addition concentration.
The efflux ratio (ER) was calculated as follows:ER = Papp(B−A)/Papp(A−B) (3)

Read-outs that look alike come from different tables or passages of the source.

For the molecule `C[C@H]1O[C@@H](O[C@H]2[C@@H](O)C[C@H](O[C@H]3[C@@H](O)C[C@H](O[C@H]4CC[C@@]5(C)[C@H](CC[C@@H]6[C@@H]5C[C@@H](O)[C@]5(C)[C@@H](C7=CC(=O)OC7)CC[C@]65O)C4)O[C@@H]3C)O[C@@H]2C)C[C@H](O)[C@@H]1O` [digoxin, reference compound], the efflux ratio at 120 min is 1.41 (MDCK-MDR1, with PSC833 5 µmol/L, MDCKⅡ-MDR1, PSC833 5 µmol/L, read-out: efflux ratio (ER) in the presence of PSC833) and 21.1 (MDCK-MDR1, MDCKⅡ-MDR1, no inhibitor, IMM-H004 10 µmol/L, digoxin 5 μmol/L, read-out: efflux ratio (ER)).

(Values after PMC10975012, “The Active Glucuronide Metabolite of the Brain Protectant IMM-H004 with Poor Blood–Brain Barrier Permeability Demonstrates a High Partition in the Rat Brain via Multiple Mechanisms” (Pharmaceutics, 2024).)
